According to US8178727B2, “Bis(arylmethylidene)acetone compound, anti-cancer agent, carcinogenesis-preventive agent, inhibitor of expression of Ki-Ras, ErbB2, c-Myc and Cycline D1, β-catenin-degrading agent, and p53 expression enhancer” (National University Corporation Tohoku University, priority 2005, dated 2012):

Legend:
DLD-1 cells [1] = assay: Cell growth inhibition (Cell Counting Kit 8, Wst-8), 96 h exposure; type: cell-based; conditions: Homo sapiens, DLD-1 colon cancer cells
Protocol: (§1) The inhibitory efficacy of bis(arylmethylidene)-acetones on the development and growth of malignant tumor cells was examined. Curcumin and bis(arylmethylidene)-acetone compounds were dissolved in DMSO to obtain 50 mM compound solutions for storage. Sixteen human cancer cell lines (HCT116, DLD-1, SW620. LK87, PC3, MCF7, PK9, HuCCT-1, SH10TC, GCIY, G361, 8505c, HepG2, A431, ACHN, OVK18) were obtained from the Medical Cellular Resources Center of the Institute of Development, Aging, and Cancer at Tohoku University, Japan. These cells were cultured at 37° C. under 5% CO2 conditions using as a culture medium RPMI1640 (Sigma Aldrich) supplemented with 10% fetal bovine serum and kanamycin (Wako Pure Chemical Industries: final concentration, […]).
(§2) Three human colon-cancer cell lines (DLD-1, HCT116, SW620) were used in screening for cell growth inhibitory efficacy. The test compounds (bis(arylmethylidene)-acetones) were added to the culture media at the target concentrations, and exposure to the compounds was then continued for 96 hours in order to investigate not only acute cell damages but also effects on the cells, involving intracellular metabolic responses and others. The cell growth inhibitory efficacy was then evaluated with Cell Counting Kit 8 (Wst-8 Test, Dojindo Laboratories, Japan). In this analysis method, tetrazolium salt Wst-8 is degraded by reduced form nicotinamide adenine dinucleotide (nicotinamide adenine dinucleotide H; NADH). The activity of NADH is maintained only inside viable cells, and Wst-8 becomes colored upon degradation. The optical absorbance at 450 nm is measured, whereby the number of viable cells can be indirectly estimated.
(§3) Each cell line was placed on a 96-well microtiter plate at a cell density of 2500 to 5000 cells/100 μL/well in accordance with the growth rate of the cell line. After cell cultivation for 24 hours, […] medium containing each compound was added. The final concentration of each test compound is 0, 0.1, 0.25, 0.5, 1, 2.5, 5, 10, 25, 50, and 100 μM (11 levels). The maximum final concentration of DMSO used as a solvent was 1%. After culturing for 96 hours, the medium was aspirated away, followed by washing with PBS. Next, 100 μL of a medium containing a solution of Cell Counting Kit 8 at 1/10 (v/v) was added. Culturing was then continued for one hour. Thereafter, each optical absorbance at 450 nm (620 nm background) was measured with an MPR-A4i microplate reader (Tosoh, Japan). A curve of the inhibition of cell growth was constructed using the measured optical absorbances.

HCT116 cells = assay: as above; type: cell-based; conditions: Homo sapiens, HCT-116, HCT116 colon cancer cells
Protocol: as §1, §2, §3

SW620 cells = assay: as above; type: cell-based; conditions: Homo sapiens, SW-620, SW620 colon cancer cells
Protocol: as §1, §2, §3

colon-cancer cells = assay: Growth inhibition compared with anti-cancer agents 5-FU, CPT11, CDDP (FIG. 6); type: cell-based, human
Protocol: as §1, §3
Stored solutions of three anti-cancer agents: 5-FU, CDDP, and CPT11, prepared beforehand (1 mM), were suitably diluted prior to use, and also added to culture media.

DLD-1 cells [2] = assay: Cell cycle / apoptosis-inducing activity by flow cytometry (FACScan); type: cell-based, human
Protocol: The activity of test compounds in cell cycle (apoptosis-inducing activity) was analyzed with a flow cytometer (FACScan). […] The cells attached to the plates are then harvested together with the cells suspended in the medium, centrifuged, and pelleted, followed by removal of supernatants. The collected cells were washed twice with PBS, then fixed with 70% ethanol for 30 minutes or more at 4° C., then washed with PBS once more, suspended in PBS supplemented with RNaseA (final concentration: 50 μg/mL; Qiagen), and incubated for 20 minutes at 37° C. Centrifugation was performed, and the supernatant was removed, after which the nuclei were stained using a solution of propidium iodide ([…]). Filtration was then performed using a nylon mesh having a pore size of 50 μm, and a DNA histogram was analyzed with a FACScan flow cytometer ([…]). The cellular fractions of subG1 phase, G0/G1 phase, S phase, and G2/M phase were determined by calculation using macCycle (Phoenix Flow Systems).

β-catenin [3] = assay: Western blot of β-catenin degrading activity; type: cell-based, human
Protocol: Western-blot analysis was used to investigate effects on the expression of oncogene products, ErbB2, c-Myc, and Cyclin D1, whose activity is enhanced in a variety of cancer cells, and to investigate the activity of degrading β-catenin, which plays an important role in the initial stages of carcinogenesis to the formation and development of tumors.
(§4) Western-blot analysis was performed in the following manner:
(§5) After HCT116 cells were treated with each test compound, plate-adhered cells were recovered along with cells suspended in supernatants, centrifuged, and pelleted. The cells were then lysed with a lysis solution (40 mM Tris-HCl, 1% Triton X-100, 2 mM MgCl2) supplemented with 200-μM phenylmethanesulfonyl fluoride (PMSF), 500-μM benzamidine, and 1-μg/mL leupeptin. After the mixture was allowed to stand on ice for 30 minutes, it was centrifuged for 10 minutes at 4° C. and 10000×g, and supernatants were recovered. To the resultant supernatant was added equimolarly 2× sample buffer (0.1 M Tris-HCl (pH 6.8), 4% SDS, 20% glycerol, and 12% β-mercaptoethanol), and the mixture was shaken for 3 minutes at 4° C., then heated to 95° C. for 4 minutes, and then stored at −20° C. until use. The cell lysates were phoresed on 8% SDS-PAGE, transferred to a Hybond-P membrane (Amersham Biosciences), and made to react with various monoclonal antibodies described below.
(§6) Monoclonal antibodies: anti-actin antibody (A2066, Sigma Aldrich), anti-β-catenin antibody (6101 53, BD-transduction Laboratories), anti-p53 antibody (FL393: sc-6243HRP), anti-cyclin D1 antibody (M-20: sc-718), anti-c-Myc antibody (9E10: sc-40), anti-k-Ras-2B antibody (C-19: sc-521), and anti-c-ErbB2 antibody (A0485, DAKO Cytomation).

[4] = system: melanoma and breast cancer cells; conditions: Non-Patent Document 2; cited from earlier work
[5] = system: cell lines derived from stomach, lung, breast, ovarian, prostate, pancreatic, bile duct, thyroid cancer and melanoma; assay: Growth inhibition compared with 5-FU, CPT11, CDDP in cell lines of other cancers (FIG. 6); type: cell-based, human; conditions: cell lines from a variety of other cancers
Protocol: as §1
as §3, with “After culturing for 96 hours, the medium was aspirated away, followed by washing with PBS. Next, 100 μL of a medium containing a solution of Cell Counting Kit 8 at 1/10 (v/v) was added. Culturing was then continued for one hour.” left out, “absorbances. […]” for “absorbances.”

[6] = system: A431, ACHN, and HepG2 cells; assay: Growth inhibition compared with conventional anti-cancer agents (FIG. 6); type: cell-based, human
Protocol: as §1
as §3, with “After culturing for 96 hours, the medium was aspirated away, followed by washing with PBS. Next, 100 μL of a medium containing a solution of Cell Counting Kit 8 at 1/10 (v/v) was added. Culturing was then continued for one hour.” left out, “absorbances. […]” for “absorbances.”

p53 = assay: Western blot of p53 gene product expression; type: cell-based, human; conditions: FIG. 11
Protocol: as §4, §5, §6
Curcumin is known to have activity in degrading p53 gene products. Degradation, genetic expression reduction, instability, or other deficiencies of the tumor suppressor gene p53 gene products, result in disadvantageous conditions as concerns cell malignancy and tendency to become cancerous.

[7] = system: primary cultured hepatic cells (hNHeps); assay: Toxicity test on normal cells; type: cell-based; conditions: FIG. 13
C57BL/6J mice = assay: In vivo toxicity, mixed feed in high-fat diet; design: species or system mouse; conditions: oral, 0.1% (w/w) in high-fat diet HFD35, 5 mg/day, more than 120 days
Protocol: The synthetic compounds of the present invention are derived from curcumin, which is originally a food item. […] As a further test for in vivo toxicity, inbred C57BL/6J mice received daily an oral intake of 5 g of mixed feed (test compound dose: 5 mg/day) wherein each test compound was admixed at 0.1% (weight/weight) with a high-fat diet (HFD35, CLEA Japan).

Apc580D mice = assay: Survival in familial adenomatous polyposis mouse model; type: in vivo
Excerpt: Familial adenomatous polyposis (FAP) is the most appropriate model for considering the multistage process of carcinogenesis in colon cancer. The APC gene is a causative gene in this illness. This gene is a tumor suppressor gene and is linked to the degradation of the β-catenin gene product. The FAP mouse model Aoc580D (Apc580D/+mice, wherein a mutation was introduced into the mouse Apc gene by homologous genetic recombination) is heterozygous for a genetic mutation in which codon 580 of the APC gene is a stop codon (i.e., the Apc gene product is truncated at codon 580). These mice present hundreds of polyps in the gastrointestinal tract in the same manner as human FAP. […] Reference: Shibata H. et al., Science, 278, pp. 120-123 “Rapid colorectal adenoma formation initiated by conditional targeting of the Apc gene,” 1997.
Analysis was performed on therapeutic models (in which administration was initiated around the age of 8 weeks, when polyposis had already been observed) and prophylactic models (in which administration was initiated around the age of 4 weeks, when polyposis had not been observed) of carcinogenesis in the colon. Apc580D mice (2 animals) given daily an oral intake of HFD35 alone at a dose of 5 g were used as a control.

colon cancer cells = conditions: Non-Patent Document 1; cited from earlier work
β-catenin [8] = conditions: Non-Patent Document 1; cited from earlier work
[9] = cited from earlier work

SMILES	IC50 (DLD-1 cells [1])	IC50 (HCT116 cells)	IC50 (SW620 cells)	growth inhibitory activity relative to 5-FU, CPT11 and CDDP (colon-cancer cells)	concentration at which β-catenin degrading activity is displayed (β-catenin [3]; FIG. 9)	anti-cancer activity relative to 5-FU, CPT11, and CDDP [5]	effect relative to conventional anti-cancer agents [6]	β-catenin-degrading activity compared with BDMPP (β-catenin [3]; FIG. 9)	transient drop in expression of p53 6 to 12 hours after administration (p53)	other results
COc1ccc(C=CC(=O)C=Cc2ccc(OC)c(OC)c2)cc1OC [GO-035, 1,5-Bis(3,4-dimethoxyphenyl)-penta-1,4-dien-3-one, reference compound]	2000 nM	2500 nM	3500 nM	much stronger	5.0 µM	–	–	–	–	concentration arresting the cell cycle at the G2/M phase (DLD-1 cells [2]; DLD-1 cells, flow cytometry): 5 µM; concentration at which β-catenin degrading activity is displayed (β-catenin [3]; FIG. 9, listed as BDMPP): 5 µM; efficacy relative to curcumin [4]: 1.3 to 2.1 times
COc1cc(/C=C/C(=O)/C=C/c2cc(OC)c(OC)c(OC)c2)cc(OC)c1OC [GO-Y016, (1E,4E)-1,5-bis-(3,4,5-trimethoxyphenyl)penta-1,4-dien-3-one]	250 nM	250 nM	200 nM	much stronger	–	strong anti-cancer activity	do not exert biological effects surpassing conventional anti-cancer agents	not	–	–
COCOc1c(OC)cc(/C=C/C(=O)/C=C/c2cc(OC)c(OCOC)c(OC)c2)cc1OC [GO-Y031, (1E,4E)-1,5-bis-(3,5-dimethoxy-4-methoxymethoxyphenyl)penta-1,4-dien-3-one]	250 nM	250 nM	500 nM	much stronger	1 µM	strong anti-cancer activity	do not exert biological effects surpassing conventional anti-cancer agents	equal to or greater than that of BDMPP	not seen	expression of p53 after 30 hours (p53): enhanced expression of p53; cytotoxicity to normal cells [7]: non-cytotoxic; growth inhibition on normal cells [7]: no growth inhibition was observed; bodily abnormalities including weight loss (C57BL/6J mice): No bodily abnormalities, including weight loss, were observed; average survival, anti-carcinogenically prophylactic model (still alive) (Apc580D mice; oral 5 mg/day in HFD35, started around 4 weeks of age): ≥ 110.0 days; survival time, therapeutic model (Apc580D mice; oral 5 mg/day in HFD35, started around 8 weeks of age, average where several mice): 148.0 days
COc1cc(/C=C/C(=O)CC(=O)/C=C/c2ccc(O)c(OC)c2)ccc1O [curcumin, (1E,6E)-1,7-bis(4-hydroxy-3-methoxyphenyl)-1,6-heptadiene-3,5-dione, reference compound]	8000 nM	8000 nM	10000 nM	–	20.0 µM	–	–	–	transient drop	sub-G1 fraction (apoptosis-induced cell death) (DLD-1 cells [2]; curcumin (20 μM in method)): not substantially observed; concentration inhibiting the growth of colon cancer cells (colon cancer cells): 20 µM; concentration degrading β-catenin (β-catenin [8]): 15 µM; water-solubility [9]: poor
